{NH2C6} = aminohexyl linker, H2N-(CH2)6-

These results are taken from patent US10605810B2, “Pincers comprising antibody and aptamer conjugated via a linker which binds to the same target material and use thereof” (University-Industry Cooperation Group Of Kyung Hee …, priority 2013, dated 2020).

The target in one data set is T1, thrombin (Homo sapiens, UniProt P00734).
T1 construct: 200 μL (2 nmol) of the thrombin solution prepared at a concentration of 10 pmol/pt was prepared; purchased Research Laboratories
The settings on record: read-out: Kd^app values reported in the art; cited from earlier work.

The next data set has as its system SK-BR-3 cells. The experiment in a line: Cell viability by MTT reduction assay, SK-BR-3.
A further data set relates to HER2 epitope peptide. The settings on record: read-out: Kd for HER2 epitope peptide (reported); cited from earlier work.
Data set [1] has as its target extracellular domain of a HER2 protein (Homo sapiens, UniProt P04626). The settings on record: cited from earlier work.

Protocol for SK-BR-3 cells: In order to maintain the cells in the log phase, a fresh medium was resupplied two or three times a week.
The cell viability was measured using the standard 3-(4,5-dimethylthiazol-2-yl)-2,5-diphenyltetrazolium bromide (MTT) reduction assay. Simply, cells that grow exponentially were inoculated at a density of 5×10^3 per well in a 96-well with flat bottom plate (200 μL/well) and cultured at 37° C. for 24 hours.
10 μL of MTT solution was added to each well, and the cells were further cultured at 37° C. for 4 hours. The amount of formazan product was measured at 570 nm. The cell survival fraction was calculated as a percentage of the untreated control group.

As for “15-mer DNA aptamer: 5′-H2N—(CH2)6-GGT TGG TGT GGT TGG-3′, specifically binds to thrombin”, the Kd in the data set with thrombin is 20.2 nM.
In the case of “29-mer DNA aptamer: 5′-H2N—(CH2)6-AGTCCGTGGTAGGGCAGGTTGGGGTGACT-3′, specifically binds to thrombin”, the Kd with thrombin is 3.5 nM.
As for `COc1cccc2c1C(=O)c1c(O)c3c(c(O)c1C2=O)C[C@@](O)(C(=O)CO)C[C@@H]3O[C@H]1C[C@H](N)[C@H](O)[C@H](C)O1` [Dox, doxorubicin], in the data set with SK-BR-3 cells (Homo sapiens, SK-BR-3, 24 h, read-out: IC50 for SK-BR-3), the half-inhibitory concentration (IC50) worked out at 43.9 nM.

B1: anti-HER2 aptamer: anti-human epidermal growth factor 2 (HER2) aptamer, SEQ ID NO: 3, purchased from Bioneers (nucleic acid)
DNA: AACCGCCCAAATCCCTAAGAGTCTGCACTTGTCATTTTGTATATGTATTTGGTTTTTGGCTCTCACAGACACACTACACACGCACA
modifications: DNA, 5' {NH2C6}, backbone not given here; further chemistry not fully specified
On to B1, for which the “cytotoxicity against SK-BR-3 cells” value in the data set with SK-BR-3 cells (0 nM to 100 nM, FIG. 10) is reported as “does not have cytotoxicity”. The Kd with HER2 epitope peptide was 18.9 nM; in data set [1], 315 nM.

By IC50 is commonly meant the concentration at which inhibition is half-maximal.
